Among the test systems are CAKI-1; K562; DMS-114; SK-MEL-5; TK-10; NCI-H23; MOLT-4; OVCAR-5; SR; 786-0; SF-539; NCI-H226; CCRF-CEM; DLD-1; HL-60; M19-MEL; SK-MEL-2; ACHN; Hs-578T; T47D.
What all share (assay): DTP human tumour cell line panel, 48 h

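Briefly, cells in 96-well plates were exposed to five compound concentrations for 48 h, and endpoints were estimated by linear interpolation. GI50: concentration for 50% inhibition of growth.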 Active and inactive are the calls of the source. Rule as the data show it: active = GI50 up to about 1.1 µM and inactive = higher. A value given as a limit tells only on which side of the number the result lay.

In the case of `Clc1ccc(CCn2cncn2)cc1`, the GI50 in the test on CAKI-1, with K562, in the test with DMS-114, in the test on SK-MEL-5, with TK-10 and in the test with NCI-H23 was > 100 µM (inactive) in each case. The GI50 in the test with MOLT-4, in the test on OVCAR-5, in the test with SR, in the test with 786-0, with SF-539 and with NCI-H226 was > 100 µM (inactive) throughout. The GI50 with CCRF-CEM, in the test with DLD-1, in the test on HL-60, in the test with M19-MEL, in the test with SK-MEL-2 and with ACHN was > 100 µM (inactive) throughout.
For the compound `COC(=O)C(CC(=O)c1cc2c(cc1I)OCO2)Cc1cc(OC)c(OC)c(OC)c1I` (stereo not drawn), the GI50 (commonly the concentration giving 50% growth inhibition) was 25 µM (inactive) in the test with CAKI-1; > 100 µM (inactive) in the test with K562; 22.8 µM (inactive) with DMS-114; 13.6 µM (inactive) with SK-MEL-5; > 100 µM (inactive) in the test on TK-10; 45.6 µM (inactive) in the test on NCI-H23. Further, the GI50 in the test with MOLT-4 is 8.67 µM (inactive); in the test on OVCAR-5 it was 2.88 µM (inactive); in the test with SR it was 8.69 µM (inactive); in the test with 786-0, > 100 µM (inactive); in the test with SF-539, > 100 µM (inactive); in the test with NCI-H226 it was > 100 µM (inactive). In addition, the GI50 is > 100 µM (inactive) with CCRF-CEM; > 100 µM (inactive) in the test with DLD-1; 16.7 µM (inactive) with HL-60; > 100 µM (inactive) with M19-MEL; > 100 µM (inactive) in the test on SK-MEL-2; 80.4 µM (inactive) with ACHN.
As to `NS(=O)(=O)c1ccc(NC(=O)C2C(=O)C(=O)N(c3ccc(S(N)(=O)=O)cc3)C2=O)cc1` (stereo not drawn), the GI50 in the test on CAKI-1, in the test with K562, with DMS-114, in the test on SK-MEL-5, in the test with TK-10 and with NCI-H23 was > 100 µM (inactive) each time. Further, the GI50 in the test on MOLT-4, in the test on OVCAR-5, in the test with SR, with 786-0, in the test with SF-539 and with NCI-H226 was > 100 µM (inactive) in each case. For the same compound, the GI50 was > 100 µM (inactive) in the test on CCRF-CEM; > 100 µM (inactive) with DLD-1; > 10 µM (inactive) in the test on HL-60; > 100 µM (inactive) in the test on M19-MEL; > 100 µM (inactive) in the test on SK-MEL-2; > 100 µM (inactive) in the test with ACHN.
Turning to `CCOC(=O)/C(=C/c1ccco1)P(=O)(OCC)OCC`, the GI50 in the test on CAKI-1, in the test on K562, in the test on DMS-114, in the test on SK-MEL-5, with TK-10 and with NCI-H23 was > 100 µM (inactive) in each case. The GI50 in the test with MOLT-4, in the test on OVCAR-5, with SR, in the test on 786-0, in the test with SF-539 and in the test on NCI-H226 was > 100 µM (inactive) each time. The GI50 in the test with CCRF-CEM, in the test on DLD-1, with HL-60, in the test on M19-MEL, in the test with SK-MEL-2 and with ACHN was > 100 µM (inactive) each time.
As for `O=C(c1ccco1)c1ccccc1C(=O)c1ccco1`, the GI50 with CAKI-1, with K562, in the test on DMS-114, with SK-MEL-5, in the test with TK-10 and with NCI-H23 was > 100 µM (inactive) each time. Besides, the GI50 in the test with MOLT-4, in the test with OVCAR-5, with SR, in the test with 786-0, with SF-539 and in the test with NCI-H226 was > 100 µM (inactive) throughout. Also, the GI50 in the test with CCRF-CEM, in the test on DLD-1, with HL-60, in the test on M19-MEL, in the test on SK-MEL-2 and in the test on ACHN was > 100 µM (inactive) each time.
Take `CCOc1ccccc1NC(=O)CCc1nnc(S)[nH]1`: the GI50 is > 100 µM (inactive) in the test with CAKI-1; > 100 µM (inactive) in the test with K562; 59.7 µM (inactive) with DMS-114; > 100 µM (inactive) in the test with SK-MEL-5; > 100 µM (inactive) in the test with TK-10; > 100 µM (inactive) with NCI-H23. Moreover, the GI50 in the test with MOLT-4, with OVCAR-5, in the test with SR, in the test with 786-0, with SF-539 and with NCI-H226 was > 100 µM (inactive) in each case. In addition, the GI50 with CCRF-CEM, in the test with DLD-1, in the test on HL-60, with M19-MEL, in the test with SK-MEL-2 and in the test with ACHN was > 100 µM (inactive) throughout.
For `Nc1ccc(-c2nc3ccccc3s2)cc1`, the GI50 in the test on CAKI-1 was 24.2 µM (inactive); in the test on K562, 21.9 µM (inactive); in the test with Hs-578T, 36.1 µM (inactive); in the test with DMS-114, 17.7 µM (inactive); in the test with SK-MEL-5, 21.6 µM (inactive); in the test with TK-10, 24.5 µM (inactive). For the same compound, the GI50 was 18.8 µM (inactive) with NCI-H23; 23.1 µM (inactive) with MOLT-4; 18.7 µM (inactive) in the test on OVCAR-5; 18.4 µM (inactive) in the test with SR; 16.2 µM (inactive) in the test with 786-0; 23 µM (inactive) in the test on SF-539. Besides, the GI50 in the test on NCI-H226 is 25.3 µM (inactive); in the test on CCRF-CEM it was 14.6 µM (inactive); in the test with DLD-1, 26.4 µM (inactive); with HL-60, 24.9 µM (inactive); with M19-MEL, 30.8 µM (inactive); in the test with T47D it was 20.7 µM (inactive). The GI50 is 25.3 µM (inactive) in the test on SK-MEL-2 and 15.7 µM (inactive) with ACHN.
As to `Nc1ncnc2c1ncn2C1C=C(CO)C(O)C1O` (stereo not drawn), the GI50 with CAKI-1 was 13.1 µM (inactive); in the test on K562 it was 0.0452 µM (active); in the test on Hs-578T, 83.6 µM (inactive); with DMS-114, 1.99 µM (inactive); in the test on SK-MEL-5, 20.3 µM (inactive); in the test with TK-10, 6.64 µM (inactive). For the same compound, the GI50 with NCI-H23 is 2.83 µM (inactive); in the test on MOLT-4, 0.249 µM (active); with OVCAR-5 it was 7.5 µM (inactive); with SR, 0.0254 µM (active); in the test on 786-0, 4.17 µM (inactive); in the test with SF-539 it was 4.26 µM (inactive). For the same compound, the GI50 in the test on NCI-H226 was 22.4 µM (inactive); in the test with CCRF-CEM it was 0.305 µM (active); in the test on DLD-1, 5.6 µM (inactive); in the test on HL-60 it was 0.34 µM (active); with M19-MEL it was 40.9 µM (inactive); with T47D, 1.64 µM (inactive). Moreover, the GI50 in the test with SK-MEL-2 was 29.7 µM (inactive); in the test with ACHN it was 4.48 µM (inactive).
